# Measurements: patent US8399465B2, “Compounds with two fused bicyclic heteroaryl moieties as modulators of leukotriene A4 hydrolase” (Janssen Pharmaceutica NV, priority 2009, dated 2013)
# Counter-ions that a name gives are not always drawn.
# Molecular target: T1, recombinant human LTA4 hydrolase (rhLTA4H) (Homo sapiens, UniProt P09960)
# T1 construct: made in house; host or cells: Spodoptera frugiperda (Sf-9) cells, baculovirus (pFastBac1)
# T1 sequence (P09960 1-611): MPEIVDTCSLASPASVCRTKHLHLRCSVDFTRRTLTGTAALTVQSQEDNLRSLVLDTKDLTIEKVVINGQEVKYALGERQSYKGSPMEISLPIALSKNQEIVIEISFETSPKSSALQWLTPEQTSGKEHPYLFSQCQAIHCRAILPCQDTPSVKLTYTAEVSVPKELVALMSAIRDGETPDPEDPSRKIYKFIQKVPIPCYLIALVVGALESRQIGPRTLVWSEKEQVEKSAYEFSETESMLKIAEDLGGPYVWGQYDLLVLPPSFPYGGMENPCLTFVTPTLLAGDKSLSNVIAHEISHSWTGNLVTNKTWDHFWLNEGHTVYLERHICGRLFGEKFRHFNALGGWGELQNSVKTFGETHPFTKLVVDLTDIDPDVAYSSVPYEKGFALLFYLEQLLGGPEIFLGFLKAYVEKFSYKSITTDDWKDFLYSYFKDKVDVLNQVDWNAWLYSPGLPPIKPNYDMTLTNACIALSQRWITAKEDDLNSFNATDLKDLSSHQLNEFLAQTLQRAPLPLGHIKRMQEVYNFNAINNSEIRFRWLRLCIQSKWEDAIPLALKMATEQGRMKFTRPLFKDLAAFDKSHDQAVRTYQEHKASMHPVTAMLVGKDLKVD
# Assay: Recombinant human LTA4 hydrolase assay for LTA4 hydrolase inhibitor activity
# Format: biochemical
# Settings: rhLTA4H, LTB4 by immunoassay; single determination or average of two or more; mark after value = form tested: ′ free base, ″ hydrochloride, ^ formate; read-out: IC50
# Experimental: Assay 1: Recombinant Human LTA4 Hydrolase Assay for LTA4 Hydrolase Inhibitor Activity
# Compounds of the present invention were tested for LTA4 hydrolase inhibitor activity against recombinant human LTA4 hydrolase (rhLTA4H). Vectors were prepared and used to express rhLTA4H essentially as follows: LTA4 hydrolase encoding DNA was amplified by polymerase chain reaction (PCR) using a human placental cDNA library as a template. […] The amplified 1.9 kb DNA fragment encoding LTA4 hydrolase was isolated and cloned into the pFastBac1 vector (Invitrogen). Recombinant baculovirus was generated as described by the manufacturer, and used to infect Spodoptera frugiperda (Sf-9) cells. […] The purified enzyme solution was adjusted to contain 0.29 mg/mL LTA4 hydrolase, 50 mM Tris (pH 8.0), 150 mM NaCl, 5 mM dithiothreitol, 50% glycerol, and EDTA-free Complete protease inhibitor cocktail (Roche).
# LTA4 substrate was prepared from the methyl ester of LTA4 (Cayman Chemical) by treatment with 67 equiv of NaOH under nitrogen at rt for 40 min. The LTA4 substrate in its free acid form was kept frozen at −80° C. until needed. Each compound was diluted to different concentrations in assay buffer (from Assay Designs) containing 10% DMSO. A 25-μL aliquot of each compound dilution was incubated for 10 min at rt with an equal volume of assay buffer containing 10 ng of recombinant human LTA4H. The solution was then adjusted to 200 μL with assay buffer. […] Each reaction was carried out at rt for 30 min. The reaction was stopped by diluting 10 μL of the reaction mixture with 200 μL of assay buffer. LTB4 was quantified in the diluted sample by a commercially available enzyme-linked immunoassay (Cayman Chemical Co.), as recommended by the manufacturer. Positive controls, under essentially identical conditions but without addition of an inhibitor compound, and negative controls, containing all assay components except enzyme, were routinely run in each experiment. IC50 values were determined by nonlinear regression of the activity data at different compound concentrations using Graphpad Prism 4.0, one site binding competition.
# The values presented here are the result of a single determination or an average of two or more determinations. Compounds that were not tested are indicated as such by a “NT” designation.
row,IC50 [nM],SMILES
1,120,"O=C(NCc1coc2cc(Oc3nc4ncccc4s3)ccc12)[C@@H]1C[C@@H]2CC[C@H]1C2 (relative stereo) [Example 389, endo-Bicyclo[2.2.1]heptane-2-carboxylic acid [6-(thiazolo[4,5-b]pyridin-2-yloxy)-benzofuran-3-ylmethyl]-amide]"
2,591,"c1ccc2sc(Oc3ccc4[nH]cc(CN5CCCC5)c4c3)nc2c1 [Example 9, 2-(3-Pyrrolidin-1-ylmethyl-1H-indol-5-yloxy)-benzothiazole]"
3,415,"c1ccc2sc(Oc3ccc4[nH]cc(CN5CCCCC5)c4c3)nc2c1 [Example 10, 2-(3-Piperidin-1-ylmethyl-1H-indol-5-yloxy)-benzothiazole]"
4,1400,"c1ccc2sc(Oc3ccc4[nH]cc(CN5CCOCC5)c4c3)nc2c1 [Example 11, 2-(3-Morpholin-4-ylmethyl-1H-indol-5-yloxy)-benzothiazole]"
5,275,"c1ccc2sc(Oc3ccc4c(CN5CCc6sc7ccccc7c6C5)c[nH]c4c3)nc2c1 [Example 39, 2-[6-(Benzothiazol-2-yloxy)-1H-indol-3-ylmethyl]-1,2,3,4-tetrahydro-benzo[4,5]thieno[3,2-c]pyridine formate]"
6,111,"Clc1cnc2nc(Oc3ccc4c(CN5CCOCC5)c[nH]c4c3)sc2c1 [Example 59, 6-Chloro-2-(3-morpholin-4-ylmethyl-1H-indol-6-yloxy)-thiazolo[4,5-b]pyridine]"
7,169,"Fc1cnc2sc(Oc3ccc4c(CN5CCOCC5)c[nH]c4c3)nc2c1 [Example 60, 6-Fluoro-2-(3-morpholin-4-ylmethyl-1H-indol-6-yloxy)-thiazolo[5,4-b]pyridine]"
8,610,"Cn1cc(CN2CCOCC2)c2ccc(Oc3nc4ccccc4s3)cc21 [Example 61, 2-(1-Methyl-3-morpholin-4-ylmethyl-1H-indol-6-yloxy)-benzothiazole]"
9,382,"CCn1c(CN2CCCCC2)cc2cc(Oc3nc4ccccc4s3)ccc21 [Example 62, 2-(1-Ethyl-2-piperidin-1-ylmethyl-1H-indol-5-yloxy)-benzothiazole]"
10,1640,"CCn1c(CN2CCOCC2)cc2cc(Oc3nc4ccccc4s3)ccc21 [Example 63, 2-(1-Ethyl-2-morpholin-4-ylmethyl-1H-indol-5-yloxy)-benzothiazole]"
11,226,"O=C(O)CC1CCN(Cc2cc3ccc(Oc4nc5ccccc5s4)cc3o2)CC1 [Example 78, {1-[6-(Benzothiazol-2-yloxy)-benzofuran-2-ylmethyl]-piperidin-4-yl}-acetic acid formate]"
12,460,"O=C(O)CN1CCN(Cc2cc3ccc(Oc4nc5ccccc5s4)cc3o2)CC1 [Example 79, {4-[6-(Benzothiazol-2-yloxy)-benzofuran-2-ylmethyl]-piperazin-1-yl}-acetic acid formate]"
13,190,"c1ccc2sc(Oc3ccc4oc(CN5CCCCC5)cc4c3)nc2c1 [Example 82, 2-(2-Piperidin-1-ylmethyl-benzofuran-5-yloxy)-benzothiazole formate]"
14,236,"Fc1cccc2sc(Oc3ccc4oc(CN5CCCCC5)cc4c3)nc12 [Example 84, 4-Fluoro-2-(2-piperidin-1-ylmethyl-benzofuran-5-yloxy)-benzothiazole formate]"
15,149,"c1cnc(OC2CCN(Cc3cc4cc(Oc5nc6ncccc6s5)ccc4o3)CC2)nc1 [Example 89, 2-{2-[4-(Pyrimidin-2-yloxy)-piperidin-1-ylmethyl]-benzofuran-5-yloxy}-thiazolo[4,5-b]pyridine]"
16,194,"c1cnc2nc(Oc3ccc4oc(CN5CCOCC5)cc4c3)sc2c1 [Example 97, 2-(2-Morpholin-4-ylmethyl-benzofuran-5-yloxy)-thiazolo[4,5-b]pyridine]"
17,153,"C[C@H]1COCCN1Cc1cc2cc(Oc3nc4ncccc4s3)ccc2o1 [Example 98, (3S)-2-[2-(3-Methyl-morpholin-4-ylmethyl)-benzofuran-5-yloxy]-thiazolo[4,5-b]pyridine]"
18,145,"O=C1CCCN1C1CCN(Cc2cc3ccc(Oc4nc5ncccc5s4)cc3o2)CC1 [Example 108, 1-{1-[6-(Thiazolo[4,5-b]pyridin-2-yloxy)-benzofuran-2-ylmethyl]-piperidin-4-yl}-pyrrolidin-2-one formate]"
19,186,"c1cnc2nc(Oc3ccc4cc(CN5C[C@@H]6C[C@H]5CO6)oc4c3)sc2c1 [Example 109, (1S,4S)-2-[2-(2-Oxa-5-aza-bicyclo[2.2.1]hept-5-ylmethyl)-benzofuran-6-yloxy]-thiazolo[4,5-b]pyridine formate]"
20,207,"c1cnc2nc(Oc3ccc4cc(CN5CC6COCC6C5)oc4c3)sc2c1 (stereo not shown) [Example 110, 2-[2-(Tetrahydro-furo[3,4-c]pyrrol-5-ylmethyl)-benzofuran-6-yloxy]-thiazolo[4,5-b]pyridine formate]"
21,281,"FC1CCN(Cc2cc3cc(Oc4nc5ncccc5s4)ccc3o2)CC1 [Example 111, 2-[2-(4-Fluoro-piperidin-1-ylmethyl)-benzofuran-5-yloxy]-thiazolo[4,5-b]pyridine]"
22,283,"c1cnc2nc(Oc3ccc4oc(CN5CC6COCC6C5)cc4c3)sc2c1 (stereo not shown) [Example 113, 2-[2-(Tetrahydro-furo[3,4-c]pyrrol-5-ylmethyl)-benzofuran-5-yloxy]-thiazolo[4,5-b]pyridine]"
23,327,"c1cnc2nc(Oc3ccc4cc(CN5CCOCC5)oc4c3)sc2c1 [Example 115, 2-(2-Morpholin-4-ylmethyl-benzofuran-6-yloxy)-thiazolo[4,5-b]pyridine]"
24,118,"NC(=O)N1C[C@@H]2C[C@H]1CN2Cc1cc2ccc(Oc3nc4ncccc4s3)cc2o1 [Example 117, (1S,4S)-5-[6-(Thiazolo[4,5-b]pyridin-2-yloxy)-benzofuran-2-ylmethyl]-2,5-diaza-bicyclo[2.2.1]heptane-2-carboxylic acid amide]"
25,145,"CC(=O)NC1CCN(Cc2cc3ccc(Oc4nc5ncccc5s4)cc3o2)C1 (stereo not shown) [Example 120, N-(1-{[6-([1,3]thiazolo[4,5-b]pyridin-2-yloxy)-1-benzofuran-2-yl]methyl}pyrrolidin-3-yl)acetamide formate]"
26,488,"CC(=O)N1C[C@@H]2C[C@H]1CN2Cc1cc2cc(Oc3nc4cccnc4s3)ccc2o1 [Example 121, (1S,4S)-1-{5-[5-(Thiazolo[5,4-b]pyridin-2-yloxy)-benzofuran-2-ylmethyl]-2,5-diaza-bicyclo[2.2.1]hept-2-yl}-ethanone]"
27,3430,"CC(=O)N1C[C@@H]2C[C@H]1CN2Cc1cc2ccc(Oc3nc4cccnc4s3)cc2o1 [Example 122, (1S,4S)-1-{5-[6-(Thiazolo[5,4-b]pyridin-2-yloxy)-benzofuran-2-ylmethyl]-2,5-diaza-bicyclo[2.2.1]hept-2-yl}-ethanone]"

row,SMILES,IC50 [nM]
1,"CC(=O)N(CC(=O)O)[C@H]1C[C@H]2CC[C@@H](C1)N2Cc1c[nH]c2cc(Oc3nc4ccccc4s3)ccc12 [Example 48, meso-endo-(Acetyl-{8-[6-(benzothiazol-2-yloxy)-1H-indol-3-ylmethyl]-8-aza-bicyclo[3.2.1]oct-3-yl}-amino)-acetic acid]",679
2,"O=C(O)C1CCN(CCc2c[nH]c3ccc(Oc4nc5ccccc5s4)cc23)CC1 [Example 73, 1-{2-[5-(Benzothiazol-2-yloxy)-1H-indol-3-yl]-ethyl}-piperidine-4-carboxylic acid]",3460
3,"c1ccc2sc(Oc3ccc4[nH]cc(CCN5CCCCC5)c4c3)nc2c1 [Example 74, 2-[3-(2-Piperidin-1-yl-ethyl)-1H-indol-5-yloxy]-benzothiazole]",2030
4,"NC(=O)C1CCN(CCc2c[nH]c3ccc(Oc4nc5ccccc5s4)cc23)CC1 [Example 75, 1-{2-[5-(Benzothiazol-2-yloxy)-1H-indol-3-yl]-ethyl}-piperidine-4-carboxylic acid amide]",714
